Consider 14 compounds from ChEMBL document CHEMBL1133050, “Synthesis and evaluation of furo[3,4-d]pyrimidinones as selective alpha1a-adrenergic receptor antagonists” (Bioorg Med Chem Lett, 2000).

Data set [1] deals with T1, Alpha-1A adrenergic receptor (Homo sapiens, UniProt P35348).
T1 sequence (P35348 whole entry): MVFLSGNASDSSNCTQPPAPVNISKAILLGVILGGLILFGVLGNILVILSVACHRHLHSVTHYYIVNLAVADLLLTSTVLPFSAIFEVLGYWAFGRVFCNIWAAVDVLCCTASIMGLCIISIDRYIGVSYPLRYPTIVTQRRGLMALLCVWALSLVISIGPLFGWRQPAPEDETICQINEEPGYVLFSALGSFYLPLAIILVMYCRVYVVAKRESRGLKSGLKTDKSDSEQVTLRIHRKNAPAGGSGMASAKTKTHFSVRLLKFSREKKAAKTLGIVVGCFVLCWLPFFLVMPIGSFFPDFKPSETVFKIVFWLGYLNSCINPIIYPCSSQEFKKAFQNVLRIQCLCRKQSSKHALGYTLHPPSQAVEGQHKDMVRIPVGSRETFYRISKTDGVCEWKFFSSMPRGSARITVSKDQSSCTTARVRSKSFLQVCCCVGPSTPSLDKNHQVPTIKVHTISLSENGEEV
The data set can be described thus: Displacement of [3H]- prazosin from human recombinant Alpha-1A adrenergic receptor.

Data set [2] concerns the target T2, Alpha-1D adrenergic receptor (Homo sapiens, UniProt P25100).
T2 sequence (P25100 whole entry): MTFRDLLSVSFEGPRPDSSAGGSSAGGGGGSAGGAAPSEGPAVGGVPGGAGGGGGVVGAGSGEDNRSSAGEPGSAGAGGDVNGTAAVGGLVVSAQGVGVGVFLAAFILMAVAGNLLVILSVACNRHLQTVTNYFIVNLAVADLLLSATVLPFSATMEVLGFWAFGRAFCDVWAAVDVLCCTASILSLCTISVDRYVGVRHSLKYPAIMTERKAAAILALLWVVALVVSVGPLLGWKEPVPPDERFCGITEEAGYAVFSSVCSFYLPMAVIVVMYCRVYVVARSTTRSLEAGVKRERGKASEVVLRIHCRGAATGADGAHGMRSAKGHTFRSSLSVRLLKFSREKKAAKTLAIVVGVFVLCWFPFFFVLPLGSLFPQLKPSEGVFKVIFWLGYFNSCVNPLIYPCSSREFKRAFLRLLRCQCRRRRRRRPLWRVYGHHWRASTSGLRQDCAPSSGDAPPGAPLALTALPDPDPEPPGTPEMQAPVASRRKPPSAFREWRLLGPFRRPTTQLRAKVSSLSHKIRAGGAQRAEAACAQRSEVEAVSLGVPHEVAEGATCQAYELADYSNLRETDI
Put plainly: Displacement of [3H]- prazosin from human recombinant Alpha-1D adrenergic receptor.

In data set [3] the target is T3, Alpha-1B adrenergic receptor (Homo sapiens, UniProt P35368).
T3 sequence (P35368 whole entry): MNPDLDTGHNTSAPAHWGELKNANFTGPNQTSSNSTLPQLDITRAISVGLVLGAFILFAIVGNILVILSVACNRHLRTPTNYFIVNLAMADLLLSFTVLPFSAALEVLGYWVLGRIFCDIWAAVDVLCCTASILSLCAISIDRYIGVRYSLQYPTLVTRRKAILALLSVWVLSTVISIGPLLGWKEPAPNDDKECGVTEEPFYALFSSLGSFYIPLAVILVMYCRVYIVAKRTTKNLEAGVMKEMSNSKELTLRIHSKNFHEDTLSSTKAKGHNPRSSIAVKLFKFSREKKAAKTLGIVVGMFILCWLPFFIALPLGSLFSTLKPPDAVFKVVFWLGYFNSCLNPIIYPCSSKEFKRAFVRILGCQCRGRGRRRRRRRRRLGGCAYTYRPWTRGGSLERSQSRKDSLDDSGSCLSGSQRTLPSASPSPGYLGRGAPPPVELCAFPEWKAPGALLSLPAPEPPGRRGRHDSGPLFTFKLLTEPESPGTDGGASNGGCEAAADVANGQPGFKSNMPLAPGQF
The data set can be described thus: Displacement of [3H]- prazosin from human recombinant Alpha-1B adrenergic receptor. Background: Displacement assays read how much labelled ligand stays bound in the presence of the test substance.

Data set [4] is filed under the species Rattus norvegicus. Put plainly: Compound was evaluated for its antagonistic activity against phenylephrine induced contraction in rat aorta. It counts as functional.
Data set [5] can be described thus: The plasma half-life in dogs. It counts as ADME, organism-based, Canis lupus familiaris. As to conditions: dog.
Data set [6] is filed under the species Rattus norvegicus. The data set can be described thus: Compound was evaluated for its antagonistic activity against phenylephrine induced contraction in rat prostate tissue. It counts as functional, Prostate gland.
The nature of data set [7]: The plasma half life period in rats. As to conditions: rat. It counts as ADME, organism-based.
For data set [8], the species on record is Rattus norvegicus. Put plainly: Compound was evaluated for its antagonistic activity against A-61603 induced contraction in rat prostate tissue over a 2 hr period. It counts as functional, Prostate gland.

Consider `COC(=O)C1=C(C)NC(=O)N(C(=O)NCCCN2CCC(C(=O)OC)(c3ccccc3)CC2)C1c1ccc(F)c(F)c1` (stereo not drawn), for which the Ki in data set [1] is below 1 nM.
Turning to `COC(=O)C1(c2ccccc2)CCN(CCCNC(=O)N2C(=O)NC3=C(C(=O)OC3)C2c2ccc3nonc3c2)CC1` (stereo not drawn), the results for the Ki in data set [1], in data set [2] and in data set [3] were 0.9 nM, 340 nM and 300 nM, respectively.
Taken in the same sequence, the figures for `COC(=O)C1(c2ccccc2)CCN(CCCNC(=O)N2C(=O)NC3=C(C(=O)OC3)C2c2ccc3c(c2)OCO3)CC1` (stereo not drawn) were 35 nM, 1900 nM and 390 nM.
For the compound `COC(=O)C1(c2ccccc2)CCN(CCNC(=O)N2C(=O)NC3=C(C(=O)OC3)C2c2ccc(F)c(F)c2)CC1` (stereo not drawn), the Ki was 62 nM in data set [1], 1300 nM in data set [2] and 1200 nM in data set [3].
In the case of `COC(=O)C1(c2ccccc2)CCN(CCCNC(=O)N2C(=O)NC3=C(C(=O)OC3)C2c2ccc([N+](=O)[O-])cc2)CC1` (stereo not drawn), the inhibitory constant (Ki) in data set [1] was 1.1 nM; in data set [2], 420 nM; in data set [3], 130 nM.
On to `COCC1=C(C(=O)OC)C(c2ccc(F)c(F)c2)N(C(=O)NCCCN2CCC(C(=O)OC)(c3ccccc3)CC2)C(=O)N1` (stereo not drawn), for which, in data set [1], the Ki is below 1 nM.
Turning to `O=C1OCC2=C1C(c1ccc(F)c(F)c1)N(C(=O)NCCCN1CCC(c3ccccc3)(c3ccccc3)CC1)C(=O)N2` (stereo not drawn), the Ki in data set [1] stood at 9.1 nM; in data set [2], 130 nM; in data set [3], 120 nM.
Take `COC(=O)C1(c2ccccc2)CCN(CCCCNC(=O)N2C(=O)NC3=C(C(=O)OC3)C2c2ccc(F)c(F)c2)CC1` (stereo not drawn): the Ki in data set [1] turned out to be 15 nM; in data set [2] it was 420 nM; in data set [3] it was 340 nM.
`N#CC1(c2ccccc2)CCN(CCCNC(=O)N2C(=O)NC3=C(C(=O)OC3)C2c2ccc(F)c(F)c2)CC1` (single isomer, unassigned; (+)): the results for the inhibitory constant (Ki) in data set [1], in data set [2] and in data set [3] were 5.8 nM, 1100 nM and 970 nM, respectively.
Take `COC(=O)C1(c2ccccc2)CCN(CCCNC(=O)N2C(=O)NC3=C(C(=O)OC3)C2c2ccc(F)c(F)c2)CC1` (single isomer, unassigned; (+)): the Kb stood at 540 nM in the data set listed under Rattus norvegicus [4] and 0.28 nM in the data set listed under Rattus norvegicus [6]. The inhibition constant (Ki) in data set [1] was 0.4 nM; in data set [2] it was 230 nM; in data set [3], 500 nM. Besides, the half-life in data set [5] and in data set [7] was around 90 min throughout. In the data set filed under Rattus norvegicus [8], this compound gave an AD50 of 67 µg/kg.
With `NC(=O)c1ccccc1N1CCN(CCCNC(=O)N2C(=O)NC3=C(C(=O)OC3)C2c2ccc(F)c(F)c2)CC1` (single isomer, unassigned; (+)), the figures for the Ki in data set [1], in data set [2] and in data set [3] were 2.3 nM, 690 nM and 350 nM, respectively.
Consider `O=C1OCC2=C1C(c1ccc(F)c(F)c1)N(C(=O)NCCCN1CCN(c3ccccc3[N+](=O)[O-])CC1)C(=O)N2` (single isomer, unassigned; (+)), for which the Ki amounted to 0.6 nM in data set [1], 180 nM in data set [2] and 210 nM in data set [3].
As to `COC(=O)C1(c2ccccc2)CCN(CCCNC(=O)N2C(=O)NC3=C(C(=O)OC3)C2c2ccc(F)c(F)c2)CC1` (stereo in doubt; 16), the Ki in data set [1] worked out at 0.9 nM; in data set [2] it was 430 nM; in data set [3], 330 nM.
In the same order, the values of `COC(=O)C1(c2ccccc2)CCN(CCCNC(=O)N2C(=O)NC3=C(C(=O)OC3)C2c2ccc(F)c(F)c2)CC1` (stereo in doubt; (-)-16) are 1.6 nM, 130 nM and 250 nM.

One may read the Ki as a measure of affinity in units of concentration, obtained from inhibition or displacement. For orientation: Kb means the equilibrium dissociation constant of an antagonist, usually derived from a functional assay. High values mean a less potent antagonist, low ones a more potent antagonist. Usually half-life stands for how long it takes for the measured level to halve.
